The source of these data is patent US8901157B2, “Compositions and methods of use of ritonavir for treating HCV” (AbbVie Inc., priority 2006, dated 2014).

A short description of data set [1]: in vitro. Format: in vitro ADME. Particulars: human, pH 7.4, human liver microsomes, read-out: Percent Inhibition of Metabolism by Ritonavir. The method, then: (§1) Liquid handling was carried out on a Tecan EVO robotic system. Triplicate incubations were carried out at a final test compound concentration of 1 μM with 0.5 mg/ml microsomal protein, and 1 mM NADPH. Pooled human liver microsomes (1 mg/ml protein) and NADPH cofactor (2 mM) were prepared in 50 mM phosphate buffer at pH 7.4. Stock solutions (10 mM) of VX-950 or SCH 503034 were prepared in DMSO and then diluted to 100 μM in 1:1 acetonitrile/water. The solutions of compounds were added into the NADPH cofactor solution containing 0, 0.8 or 8 μM of ritonavir in a 2 ml 96-well plate. The resulting solution was added to the microsomes (1:1) that had been pre-incubated for 10 minutes at 37° C. Samples (0.1 ml) were incubated in 96-well plates at 37° C. for 0, 10, 20 and 30 min in a Tecan 4-slot incubator. At each time point, the robotic arm removed one of the replicate plates and the reactions were stopped by adding 1 volume (100 μl) of acetonitrile with internal standard (0.05 μM buspirone) to each well. All plates were centrifuged at 3500 rpm for 30 min, and the supernatant was transferred to a 96-well injection plate. The plates were stored at 4° C. until analyzed.
(§2) LC-MS/MS analysis: The samples were analyzed in positive mode using the turbospray ion source of PE/Sciex API 4000 Q-Trap mass spectrometer with Shimadzu HPLC system. Samples were injected (5 μL) onto a Lancer C18 column (5 μm, 30×2.1 mm) from Analytical Sales and Services Inc. (Pompton Plains, N.J.) and separation occurred via a gradient: The flow rate was 0.5 mL/min; starting conditions of 7.5% B, 2.5% C, increasing to 30% B and 10% C at 0.4 min. […] Mobile phase A was 95/5 water/methanol (v/v) with 10 mM ammonium acetate and 60 μL/L acetic acid. Mobile phase B was methanol containing 10 mM ammonium acetate and 60 μL/L acetic acid. Mobile phase C was acetonitrile.
Using the above conditions, the presence of ritonavir inhibited the metabolism of VX-950 and SCH 503034 in the following manner:
Metabolism of VX-950 and SCH 503034 in Human Liver Microsomes in the Absence or Presence of Ritonavir
On the technique in general: Microsomes from liver hold many membrane-bound enzymes, among them those of drug oxidation.

Data set [2] can be described thus: in vitro. Particulars: rat, pH 7.4, rat liver microsomes, read-out: Percent Inhibition of Metabolism by Ritonavir. Format: in vitro ADME. How it is done:
as §1, §2
Using the procedure of Example 1, but substituting rat liver microsomes for human liver microsomes, the presence of ritonavir inhibited the metabolism of VX-950 and SCH 503034 in the following manner: […]

For data set [3] the following is noted: Sprague-Dawley, rat, in vivo, 5 mg/kg.
Procedure: (§3) The 1 mL/kg intravenous dose was administered as a slow bolus (˜1 minutes) in a jugular vein of the rats under isoflurane anesthetic; the 1 ml/kg oral dose (±ritonavir) was administered by gavage. Serial blood samples were obtained from a tail vein of each animal 0.1 (IV only), 0.25, 0.5, 1, 1.5, 2, 3, 4, 6 and 8 hours after dosing. The heparinized samples were placed on ice immediately following collection. Plasma was separated by centrifugation and stored frozen for subsequent analysis.
(§4) Concentrations of parent drug (and ritonavir) were determined by HPLC-MS/MS following liquid-liquid extraction of the plasma samples. Analysis was performed on a Sciex API 2000™ Biomolecular Mass Analyzer using Turbo Ion Spray. Peak areas of the title compounds and internal standards were determined using the Sciex MacQuan™ software. Calibration curves were derived from peak area ratio (parent drug/internal standard) of the spiked plasma standards using least squares linear regression of the ratio versus the theoretical concentration. The maximum plasma concentration (Cmax) and the time to reach the maximum plasma concentration (Tmax) were read directly from the observed plasma concentration-time data. The plasma concentration data were submitted to multi-exponential curve fitting using WinNonlin. The area under the plasma concentration-time curve from 0 to t hours (last measurable plasma concentration time point) after dosing (AUC0-t) was calculated using the linear trapezoidal rule for the plasma-time profiles. The residual area extrapolated to infinity, determined as the final measured plasma concentration (Ct) divided by the terminal elimination rate constant (β), was added to AUC0-t to produce the total area under the curve (AUC0-∞). The apparent total plasma clearance (CLp) was calculated by dividing the administered dose by the AUC0-∞. The volume of distribution, Vc, was estimated by dividing the dose by the extrapolated plasma concentration at time zero (C0). The volume of distribution at steady state, Vss, was estimated as a product of the plasma clearance (CLp) and the mean residence time (MRT); the terminal-phase volume of distribution, Vβ, was derived from the plasma clearance value (CLp) divided by the plasma elimination rate constant (β). The bioavailability was calculated as the dose-normalized AUC0-∞ from the oral dose divided by the corresponding value derived from an intravenous dose.
A short description of the next data set: in vivo. The conditions noted are these: Sprague-Dawley, rat, 5 mg/kg.
Data set [4] in a line: Pharmacokinetics of VX-950 in rats, with or without coadministered ritonavir. The conditions noted are these: rat; for half-life: Sprague-Dawley, plasma, 5 mg/kg.
Procedure: as §3, §4
A short description of data set [5]: Pharmacokinetics of SCH 503034 in rats, with or without coadministered ritonavir. Particulars: rat; for half-life: mean; for Cmax: po, 5 mg/kg; for C8 h: plasma at 8 h. It is filed as in vivo, Sprague-Dawley derived rats.
Setting [6] is: PO 5 mg/kg, no ritonavir, mean (SEM), n=3.
Setting [7] is: Sprague-Dawley, plasma, PO 5 mg/kg, no ritonavir, mean (SEM), n=3.

Each structure is given as a SMILES string. Read-outs that look alike come from different tables or passages of the source. A value given as a limit tells only on which side of the number the result lay.

Procedure for in vivo: as §3, §4

As to `CCC[C@H](NC(=O)[C@@H]1[C@H]2CCC[C@H]2CN1C(=O)[C@@H](NC(=O)[C@@H](NC(=O)c1cnccn1)C1CCCCC1)C(C)(C)C)C(=O)C(=O)NC1CC1` [VX-950, 2-(2-{2-cyclohexyl-2[(pyrazine-2-carbonyl)-amino]-acetylamino}-3,3-dimethyl-butyryl)-octahydro-cyclopenta[c]pyrrole-1-carboxylic acid(1-cyclopropylaminooxalyl-butyl)-amide], the inhibition at 1 μM in “in vitro [1]” (ritonavir 0 micromolar) came out at 0%; in the data set “in vitro [1]” (ritonavir 0.4 micromolar), 72%; in “in vitro [1]” (ritonavir 4.0 micromolar), 100%. The figures for the inhibition at 30 min, 1 μM in the data set “in vitro [2]” (ritonavir 0 micromolar), in “in vitro [2]” (ritonavir 0.4 micromolar) and in “in vitro [2]” (ritonavir 4.0 micromolar) were 0%, 61% and 100%, respectively. Further, in data set [3] (iv), the Vβ is 8.1 (2.6) L/kg. The F in data set [3] (po) is reported as 34.8 (11.0) %. Besides, the C8 h in data set [3] (po, 8 h) is reported as 0.018. In addition, the AUC in the data set “in vivo” (iv) stood at 3.03 µg·h/mL; in the data set “in vivo” (po) it was 1.05 µg·h/mL. The compound further came in with a Vd in the data set “in vivo” (iv) of 2.4 L/kg. The compound further had a clearance in “in vivo” (iv) of 1.7 L/h/kg. In addition, in “in vivo” (po, Tmax), the Tmax came out at 1.1 h. The half-life in data set [4] (iv) is 2.8 h; in data set [4] (po), 1.7 h. For the same compound, the Cmax in data set [4] (setting [6]) was 0.43 (0.15) μg/ml.
Turning to `CC(C)(C)NC(=O)N[C@H](C(=O)N1C[C@H]2[C@@H]([C@H]1C(=O)NC(CC1CCC1)C(=O)C(N)=O)C2(C)C)C(C)(C)C` (some centres unmarked) [SCH 503034, 3-[2-(3-tert-butyl-ureido)-3,3-diemthyl-butyryl]-6,6-dimethyl-3-aza-bicyclo[3.1.0]hexane-2-carboxylic acid (2-carbamoyl-1-cyclobutylmethyl-2-oxo-ethyl)-amide], the AUC is 3.12 µg·h/mL in data set [5] (Sprague-Dawley, plasma, IV 5 mg/kg, mean (SEM), n=3) and 0.11 µg·h/mL in data set [5] (setting [7]). In data set [5] (Sprague-Dawley, plasma, IV 5 mg/kg, mean (SEM), n=3, read-out: CLp (converted)), the clearance was 2.04 L/h/kg. In addition, the Vd in data set [5] (Sprague-Dawley, plasma, IV 5 mg/kg, mean (SEM), n=3, read-out: Vss) came out at 0.53 L/kg. Also, the half-life in data set [5] (Sprague-Dawley, plasma, IV 5 mg/kg, n=3) was 0.3 h; in data set [5] (Sprague-Dawley, plasma, PO+ = 5 mg/kg oral SCH 503034 + 5 mg/kg oral ritonavir, n=3) it was 2.5 h. In addition, the AUC(0-t) in data set [5] (Sprague-Dawley, plasma, PO+ = 5 mg/kg oral SCH 503034 + 5 mg/kg oral ritonavir, mean (SEM), n=3, read-out: AUC (0-8 hr AUC)) stood at 2.18 µg·h/mL. Moreover, the Cmax is 0.07 µg/mL in data set [5] (setting [7]) and 0.52 µg/mL in data set [5] (Sprague-Dawley, plasma, PO+ = 5 mg/kg oral SCH 503034 + 5 mg/kg oral ritonavir, mean (SEM), n=3). Also, the “plasma levels on coadministering with ritonavir” value in data set [5] (5 mg/kg oral SCH 503034 + 5 mg/kg oral ritonavir vs SCH 503034 alone, FIG. 3) is on record as “substantially elevated”. Also, the Vβ in data set [5] (IV 5 mg/kg, mean (SEM), n=3) is recorded as 0.92 (0.29) L/kg. The F in data set [5] (setting [6]) is given as 3.5 (1.5) %; in data set [5] (PO+ = 5 mg/kg oral SCH 503034 + 5 mg/kg oral ritonavir, mean (SEM), n=3), 70.1 (7.0) %. Further, the C8 h is given as under 0.001 in data set [5] (PO 5 mg/kg, no ritonavir) and 0.076 in data set [5] (PO+ = 5 mg/kg oral SCH 503034 + 5 mg/kg oral ritonavir).

As a reminder, the inhibition is the change of the read-out against control, counted positive when it falls. By AUC is commonly meant the area under the concentration-time curve, a measure of exposure. A word on the Tmax: it is the time from dosing to the highest level. One may read the half-life as the time in which the quantity being followed falls by half.
